According to PubChem BioAssay (NCI):
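GI50: concentration for 50% inhibition of growth. TGI: concentration producing complete growth inhibition.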

Legend:
Assay in all cases: inhibition of tumour cell growth, NCI panel, 384-well format
[1] = tested on: 786-0 renal
[2] = tested on: A498 renal
[3] = tested on: A549 NSCLC
[4] = tested on: ACHN renal
[5] = tested on: BT-549 breast
[6] = tested on: CAKI-1 renal
[7] = tested on: CCRF-CEM leukemia
[8] = tested on: COLO 205 colon
[9] = tested on: DU-145 prostate
[10] = tested on: EKVX NSCLC
[11] = tested on: HCC-2998 colon
[12] = tested on: HCT-15 colon
[13] = tested on: HL-60(TB) leukemia
[14] = tested on: HOP-92 NSCLC
[15] = tested on: HS 578T breast
[16] = tested on: HT29 colon
[17] = tested on: IGROV1 ovarian
[18] = tested on: K-562 leukemia
[19] = tested on: KM12 colon
[20] = tested on: LOX IMVI melanoma
[21] = tested on: M14 melanoma
[22] = tested on: MALME-3M melanoma
[23] = tested on: MCF7 breast
[24] = tested on: MDA-MB-231 breast
[25] = tested on: MDA-MB-435 melanoma
[26] = tested on: MDA-MB-468 breast
[27] = tested on: MOLT-4 leukemia
[28] = tested on: NCI-H226 lung
[29] = tested on: NCI-H23 lung
[30] = tested on: NCI-H322M lung
[31] = tested on: NCI-H460 NSCLC
[32] = tested on: NCI-H522 lung
[33] = tested on: NCI/ADR-RES ovarian
[34] = tested on: OVCAR-3 ovarian
[35] = tested on: OVCAR-4 ovarian
[36] = tested on: OVCAR-5 ovarian
[37] = tested on: OVCAR-8 ovarian
[38] = tested on: PC-3 prostate
[39] = tested on: RPMI-8226 leukemia
[40] = tested on: RXF 393 renal
[41] = tested on: SF-268 CNS
[42] = tested on: SF-295 CNS
[43] = tested on: SF-539 CNS
[44] = tested on: SK-MEL-28 melanoma
[45] = tested on: SK-MEL-5 melanoma
[46] = tested on: SK-OV-3 ovarian
[47] = tested on: SN12C renal
[48] = tested on: SNB-19 CNS
[49] = tested on: SNB-75 CNS
[50] = tested on: SR leukemia
[51] = tested on: SW-620 colon
[52] = tested on: T-47D breast
[53] = tested on: TK-10 renal
[54] = tested on: UACC-257 melanoma
[55] = tested on: UACC-62 melanoma
[56] = tested on: UO-31 renal
[57] = tested on: HCT-116 colon
[58] = tested on: HOP-62 NSCLC
[59] = tested on: SK-MEL-2 melanoma
[60] = tested on: U251 glioblastoma

COCc1cc(C(=O)Nc2cc([C@H]3CC[C@@H](OC(=O)NC(C)C)C3)[nH]n2)n(C)n1
GI50 [1]: 5.05 µM
TGI [1]: 64.2 µM
GI50 [2]: 1.52 µM
TGI [2]: > 100 µM
GI50 [3]: 3.03 µM
TGI [3]: > 100 µM
GI50 [4]: 3.45 µM
TGI [4]: > 100 µM
GI50 [5]: 3.38 µM
TGI [5]: 20.3 µM
GI50 [6]: 3.99 µM
TGI [6]: > 100 µM
GI50 [7]: 2.81 µM
TGI [7]: 7.24 µM
GI50 [8]: 0.975 µM
TGI [8]: 19 µM
GI50 [9]: 3.14 µM
TGI [9]: > 100 µM
GI50 [10]: 14.9 µM
TGI [10]: 48.8 µM
GI50 [11]: 5.15 µM
TGI [11]: 25.9 µM
GI50 [12]: 6.45 µM
TGI [12]: 37.4 µM
GI50 [13]: 1.52 µM
TGI [13]: 2.89 µM
GI50 [14]: 14 µM
TGI [14]: > 100 µM
GI50 [15]: 11.4 µM
TGI [15]: 29.5 µM
GI50 [16]: 12.4 µM
TGI [16]: > 100 µM
GI50 [17]: 4.47 µM
TGI [17]: > 100 µM
GI50 [18]: 13.8 µM
TGI [18]: 65.2 µM
GI50 [19]: 0.571 µM
TGI [19]: 17.2 µM
GI50 [20]: 3.12 µM
TGI [20]: 18.9 µM
GI50 [21]: 4.82 µM
TGI [21]: 18.8 µM
GI50 [22]: 12.3 µM
TGI [22]: 26.1 µM
GI50 [23]: 2.66 µM
TGI [23]: 13.4 µM
GI50 [24]: 9.08 µM
TGI [24]: > 100 µM
GI50 [25]: 12.5 µM
TGI [25]: 84.8 µM
GI50 [26]: 13.9 µM
TGI [26]: 27 µM
GI50 [27]: 4.36 µM
TGI [27]: 12.5 µM
GI50 [28]: 2.85 µM
TGI [28]: 51.6 µM
GI50 [29]: 2.48 µM
TGI [29]: 10.1 µM
GI50 [30]: 3.8 µM
TGI [30]: 13 µM
GI50 [31]: 3.07 µM
TGI [31]: 14.3 µM
GI50 [32]: 15.1 µM
TGI [32]: 31.6 µM
GI50 [33]: > 100 µM
TGI [33]: > 100 µM
GI50 [34]: 5.24 µM
TGI [34]: 28.8 µM
GI50 [35]: 18.3 µM
TGI [35]: 52.7 µM
GI50 [36]: 3.12 µM
TGI [36]: 9.17 µM
GI50 [37]: 4.64 µM
TGI [37]: 36.2 µM
GI50 [38]: 6.59 µM
TGI [38]: > 100 µM
GI50 [39]: 1.84 µM
TGI [39]: 6.78 µM
GI50 [40]: 5.42 µM
TGI [40]: 23.4 µM
GI50 [41]: 2.37 µM
TGI [41]: 15.4 µM
GI50 [42]: 10.3 µM
TGI [42]: 79.3 µM
GI50 [43]: 3.97 µM
TGI [43]: 19.6 µM
GI50 [44]: 10.3 µM
TGI [44]: 22.8 µM
GI50 [45]: 0.762 µM
TGI [45]: 13.9 µM
GI50 [46]: 8.29 µM
TGI [46]: 90.1 µM
GI50 [47]: 4.38 µM
TGI [47]: 23.9 µM
GI50 [48]: 5.67 µM
TGI [48]: > 100 µM
GI50 [49]: 8.98 µM
TGI [49]: 22.3 µM
GI50 [50]: 0.557 µM
TGI [50]: 1.86 µM
GI50 [51]: 2.45 µM
TGI [51]: 65.4 µM
GI50 [52]: 5.58 µM
TGI [52]: > 100 µM
GI50 [53]: 14.8 µM
TGI [53]: > 100 µM
GI50 [54]: 6.8 µM
TGI [54]: 25.3 µM
GI50 [55]: 2.98 µM
TGI [55]: 12.8 µM
GI50 [56]: 31.5 µM
TGI [56]: > 100 µM

CC(C)=CCC/C(C)=C/CC/C(C)=C/CSc1ccccc1C(=O)O
GI50 [1]: > 100 µM
TGI [1]: > 100 µM
GI50 [2]: > 100 µM
TGI [2]: > 100 µM
GI50 [3]: 90.1 µM
TGI [3]: > 100 µM
GI50 [4]: > 100 µM
TGI [4]: > 100 µM
GI50 [5]: > 100 µM
TGI [5]: > 100 µM
GI50 [6]: > 100 µM
TGI [6]: > 100 µM
GI50 [7]: 45.2 µM
TGI [7]: > 100 µM
GI50 [8]: > 100 µM
TGI [8]: > 100 µM
GI50 [9]: > 100 µM
TGI [9]: > 100 µM
GI50 [10]: > 100 µM
TGI [10]: > 100 µM
GI50 [11]: > 100 µM
TGI [11]: > 100 µM
GI50 [57]: > 100 µM
TGI [57]: > 100 µM
GI50 [12]: 73.3 µM
TGI [12]: > 100 µM
GI50 [13]: 83.7 µM
TGI [13]: > 100 µM
GI50 [58]: > 100 µM
TGI [58]: > 100 µM
GI50 [14]: > 100 µM
TGI [14]: > 100 µM
GI50 [15]: > 100 µM
TGI [15]: > 100 µM
GI50 [16]: > 100 µM
TGI [16]: > 100 µM
GI50 [17]: > 100 µM
TGI [17]: > 100 µM
GI50 [18]: > 100 µM
TGI [18]: > 100 µM
GI50 [19]: > 100 µM
TGI [19]: > 100 µM
GI50 [20]: > 100 µM
TGI [20]: > 100 µM
GI50 [21]: > 100 µM
TGI [21]: > 100 µM
GI50 [22]: > 100 µM
TGI [22]: > 100 µM
GI50 [23]: > 100 µM
TGI [23]: > 100 µM
GI50 [24]: > 100 µM
TGI [24]: > 100 µM
GI50 [25]: > 100 µM
TGI [25]: > 100 µM
GI50 [26]: > 100 µM
TGI [26]: > 100 µM
GI50 [27]: 51.3 µM
TGI [27]: > 100 µM
GI50 [28]: > 100 µM
TGI [28]: > 100 µM
GI50 [29]: > 100 µM
TGI [29]: > 100 µM
GI50 [30]: > 100 µM
TGI [30]: > 100 µM
GI50 [31]: > 100 µM
TGI [31]: > 100 µM
GI50 [32]: 16.2 µM
TGI [32]: 43.6 µM
GI50 [33]: > 100 µM
TGI [33]: > 100 µM
GI50 [34]: > 100 µM
TGI [34]: > 100 µM
GI50 [35]: > 100 µM
TGI [35]: > 100 µM
GI50 [36]: > 100 µM
TGI [36]: > 100 µM
GI50 [38]: > 100 µM
TGI [38]: > 100 µM
GI50 [39]: 47.9 µM
TGI [39]: > 100 µM
GI50 [40]: 70.4 µM
TGI [40]: > 100 µM
GI50 [41]: > 100 µM
TGI [41]: > 100 µM
GI50 [42]: > 100 µM
TGI [42]: > 100 µM
GI50 [43]: > 100 µM
TGI [43]: > 100 µM
GI50 [59]: > 100 µM
TGI [59]: > 100 µM
GI50 [44]: > 100 µM
TGI [44]: > 100 µM
GI50 [45]: > 100 µM
TGI [45]: > 100 µM
GI50 [46]: > 100 µM
TGI [46]: > 100 µM
GI50 [47]: > 100 µM
TGI [47]: > 100 µM
GI50 [48]: > 100 µM
TGI [48]: > 100 µM
GI50 [49]: > 100 µM
TGI [49]: > 100 µM
GI50 [50]: 54.2 µM
TGI [50]: > 100 µM
GI50 [51]: > 100 µM
TGI [51]: > 100 µM
GI50 [52]: > 100 µM
TGI [52]: > 100 µM
GI50 [53]: > 100 µM
TGI [53]: > 100 µM
GI50 [60]: > 100 µM
TGI [60]: > 100 µM
GI50 [54]: > 100 µM
TGI [54]: > 100 µM
GI50 [55]: > 100 µM
TGI [55]: > 100 µM
GI50 [56]: > 100 µM
TGI [56]: > 100 µM
